# Activity calls are given as the source filed them.
# Tests used:
# HEK293 = assay: optical interference in Abeta FP readout, dose response, artefact control for IDE activator project, biochemical, fluorescence polarization (AID 588442); assay type: functional, cell-based; details: Homo sapiens
# [1] = molecular target: T1, Tyrosine-protein phosphatase non-receptor type 22 (Homo sapiens, UniProt Q9Y2R2); assay type: functional;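 also: confirmatory dose-response retest of primary uHTS hits for inhibition of LYP phosphatase, measured by a fluorescence intensity read-out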
# T1 sequence (Q9Y2R2 whole entry): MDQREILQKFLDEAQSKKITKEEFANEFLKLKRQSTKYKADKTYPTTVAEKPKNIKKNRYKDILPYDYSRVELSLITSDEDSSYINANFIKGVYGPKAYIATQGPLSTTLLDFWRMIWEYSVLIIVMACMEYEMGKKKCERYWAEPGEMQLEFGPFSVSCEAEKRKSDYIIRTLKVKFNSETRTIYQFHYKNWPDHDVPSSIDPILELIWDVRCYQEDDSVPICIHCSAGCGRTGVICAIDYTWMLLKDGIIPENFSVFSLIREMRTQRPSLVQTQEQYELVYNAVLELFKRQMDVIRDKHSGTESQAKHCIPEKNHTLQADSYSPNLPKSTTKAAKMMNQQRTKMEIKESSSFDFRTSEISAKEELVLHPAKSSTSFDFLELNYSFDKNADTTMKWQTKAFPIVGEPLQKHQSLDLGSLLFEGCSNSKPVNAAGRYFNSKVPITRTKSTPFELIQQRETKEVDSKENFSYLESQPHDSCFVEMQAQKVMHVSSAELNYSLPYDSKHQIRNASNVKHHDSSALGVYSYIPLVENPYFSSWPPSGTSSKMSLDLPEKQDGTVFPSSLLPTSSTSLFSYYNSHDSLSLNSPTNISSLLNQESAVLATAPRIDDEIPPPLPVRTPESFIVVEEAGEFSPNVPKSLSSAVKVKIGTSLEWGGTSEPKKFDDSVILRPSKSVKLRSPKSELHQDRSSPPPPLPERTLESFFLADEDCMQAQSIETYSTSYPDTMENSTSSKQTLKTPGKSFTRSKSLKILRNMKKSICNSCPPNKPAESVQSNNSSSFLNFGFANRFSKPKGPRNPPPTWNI
# [2] = molecular target: Dual specificity protein phosphatase 3 (Homo sapiens, UniProt P51452); assay: VHR phosphatase inhibition, dose response, selectivity assay for STEP inhibitor project, biochemical (AID 602374); assay type: functional; details: read-out: IC50_Mean
# [3] = molecular target: T2, Tyrosine-protein phosphatase non-receptor type 5 (Homo sapiens, UniProt P54829); assay: STEP phosphatase inhibitors, confirmation, biochemical, fluorescence intensity, uHTS hits (AID 602372); assay type: functional; details: read-out: IC50_Mean
# T2 sequence (P54829 whole entry): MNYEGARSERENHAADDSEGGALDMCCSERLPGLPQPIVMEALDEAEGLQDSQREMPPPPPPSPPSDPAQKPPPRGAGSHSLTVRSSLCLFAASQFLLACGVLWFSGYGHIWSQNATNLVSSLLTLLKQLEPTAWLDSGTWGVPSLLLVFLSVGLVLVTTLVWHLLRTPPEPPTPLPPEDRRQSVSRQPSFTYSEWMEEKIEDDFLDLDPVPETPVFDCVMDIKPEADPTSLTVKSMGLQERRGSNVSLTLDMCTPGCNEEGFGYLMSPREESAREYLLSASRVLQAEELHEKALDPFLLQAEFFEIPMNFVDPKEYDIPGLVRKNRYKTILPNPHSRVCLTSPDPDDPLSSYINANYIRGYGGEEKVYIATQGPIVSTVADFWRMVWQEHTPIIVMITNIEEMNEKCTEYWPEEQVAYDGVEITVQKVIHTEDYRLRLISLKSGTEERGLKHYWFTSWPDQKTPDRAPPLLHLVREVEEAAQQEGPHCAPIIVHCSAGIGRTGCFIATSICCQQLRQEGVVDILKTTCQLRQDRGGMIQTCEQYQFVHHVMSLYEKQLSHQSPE
# [4] = molecular target: T3, Serine/threonine-protein phosphatase (Homo sapiens, UniProt Q9BPW0); assay: PP5 phosphatase inhibitors, dose response, biochemical, fluorescence (AID 2395)
# T3 sequence (Q9BPW0 whole entry): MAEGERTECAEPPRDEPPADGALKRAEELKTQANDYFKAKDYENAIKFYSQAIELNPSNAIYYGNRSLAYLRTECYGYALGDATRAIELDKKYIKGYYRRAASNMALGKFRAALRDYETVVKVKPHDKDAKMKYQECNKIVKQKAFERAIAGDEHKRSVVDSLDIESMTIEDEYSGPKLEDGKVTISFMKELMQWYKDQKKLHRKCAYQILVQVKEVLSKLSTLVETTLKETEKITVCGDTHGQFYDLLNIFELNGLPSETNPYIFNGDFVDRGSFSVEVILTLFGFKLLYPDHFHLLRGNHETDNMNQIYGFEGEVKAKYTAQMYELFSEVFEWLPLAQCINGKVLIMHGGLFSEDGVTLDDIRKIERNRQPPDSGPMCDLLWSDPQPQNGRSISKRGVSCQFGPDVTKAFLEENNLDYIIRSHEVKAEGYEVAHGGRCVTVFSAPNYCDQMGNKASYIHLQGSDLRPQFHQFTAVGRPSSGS
# [5] = molecular target: T4, Replicative DNA helicase DnaB (Mycobacterium tuberculosis, UniProt P9WMR3); assay: DnaB intein splicing inhibitors, dose response, biochemical, cell-free fluorescence (AID 449749); assay type: functional
# T4 sequence (P9WMR3 whole entry): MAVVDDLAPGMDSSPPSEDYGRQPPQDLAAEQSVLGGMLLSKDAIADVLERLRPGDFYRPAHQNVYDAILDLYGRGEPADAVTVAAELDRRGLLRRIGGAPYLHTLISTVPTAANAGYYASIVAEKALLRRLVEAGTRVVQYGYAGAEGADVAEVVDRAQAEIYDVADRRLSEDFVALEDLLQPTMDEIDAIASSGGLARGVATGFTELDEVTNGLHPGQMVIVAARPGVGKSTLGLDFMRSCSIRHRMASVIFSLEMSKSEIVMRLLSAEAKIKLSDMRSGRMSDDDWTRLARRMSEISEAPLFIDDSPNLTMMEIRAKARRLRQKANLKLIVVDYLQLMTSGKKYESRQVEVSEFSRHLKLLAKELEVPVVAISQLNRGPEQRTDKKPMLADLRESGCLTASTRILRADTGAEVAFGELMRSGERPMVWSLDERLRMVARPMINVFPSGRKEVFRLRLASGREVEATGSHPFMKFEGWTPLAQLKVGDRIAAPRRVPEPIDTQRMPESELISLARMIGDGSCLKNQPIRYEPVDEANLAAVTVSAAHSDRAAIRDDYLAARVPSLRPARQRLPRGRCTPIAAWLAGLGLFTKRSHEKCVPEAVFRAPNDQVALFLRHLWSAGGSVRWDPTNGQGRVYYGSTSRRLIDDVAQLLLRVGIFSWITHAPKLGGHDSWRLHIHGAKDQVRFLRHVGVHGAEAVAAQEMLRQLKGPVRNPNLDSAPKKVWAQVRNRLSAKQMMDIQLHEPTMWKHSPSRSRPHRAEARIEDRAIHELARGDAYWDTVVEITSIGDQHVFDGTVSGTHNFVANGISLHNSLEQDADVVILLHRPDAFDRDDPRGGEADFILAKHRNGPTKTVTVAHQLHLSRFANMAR
# Chain of Dual specificity protein phosphatase 3 (P51452 whole entry): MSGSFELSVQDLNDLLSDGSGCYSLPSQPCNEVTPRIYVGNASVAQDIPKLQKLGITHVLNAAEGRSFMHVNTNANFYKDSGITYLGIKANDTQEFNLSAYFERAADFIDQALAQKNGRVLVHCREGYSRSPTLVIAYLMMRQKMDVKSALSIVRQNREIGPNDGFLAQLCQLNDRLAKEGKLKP
smiles,measurement,setting,value
O=c1oc2c(O)cccc2cc1-c1nc2ccccc2[nH]1,EC50,HEK293,> 54.7 µM (inactive)
CCOC(=O)c1sc2nc3c(SCC(=O)O)cc(C(=O)c4ccccc4O)cn3c(=O)c2c1C,IC50,[1],< 1.24 µM (active)
same,IC50,[2],0.549 µM (active)
same,IC50,[3],2.18 µM (active)
C=CCn1c(NC(=O)c2ccccc2Cl)c(C#N)c2nc3ccccc3nc21,IC50,[4],> 7.45 µM (active)
CCOC(=O)c1ccc(Nc2cc3ccccc3c(O)n2)cc1,AC50,[5],11.1 µM (active)

# — ChEMBL document CHEMBL1201862, “PubChem BioAssay data set” (2004)
